# Test results from US12433846B2, “Drug delivery system for treatment of cancer” (SINTEF TTO AS, priority 2019, dated 2025).
# Where “and” joins values, the source holds several entries; their conditions need not be identical. Equal entries are not always repeated.
# Key:
# [1] = tested on: PMCA-1 (peritoneal metastases from colorectal cancer); assay: In vivo treatment effect in orthotopic PMCA-1 peritoneal carcinomatosis model; conditions: PMCA-1, 15 mg/kg
# [2] = tested on: PMCA-3 (pseudomyxoma peritonei); assay: In vivo treatment effect in orthotopic PMCA-3 peritoneal carcinomatosis model; conditions: PMCA-3, 15 mg/kg
smiles,measurement,setting,value
"CO[C@H]1C(=O)[C@]2(C)[C@@H](OC)C[C@H]3OC[C@@]3(OC(C)=O)[C@H]2[C@H](OC(=O)c2ccccc2)[C@]2(O)C[C@H](OC(=O)[C@H](O)[C@@H](NC(=O)OC(C)(C)C)c3ccccc3)C(C)=C1C2(C)C [CBZ, cabazitaxel]",mice still alive at day 90 after the injection,[1]; IP (FIG. 4),4 out of 6
same,mice still alive at day 90 after the injection,[1]; IV (FIG. 4),3 out of 6
same,tumor growth (growth index) compared to vehicle treatment,[1]; intraperitoneal (FIG. 1),significantly inhibited tumor growth
same,mice cured (sacrificed on day 100 with no detectable tumor),"[1]; intraperitoneal, day 100",3/6 and 3 out of 6
same,mice still alive at day 60 after the injection,[2]; IP (FIG. 6),none of the mice
same,mice alive at day 70 after the injection,[2]; IV (FIG. 6),none of the mice
same,tumor growth (growth index) compared to vehicle treatment,[2]; intraperitoneal (FIG. 2),significantly reduced tumor growth
same,mice cured (sacrificed on day 100 with no detectable tumor),"[2]; intraperitoneal, day 100",No animals were cured
